Experiments:
[1] = refractive index (Na D-line) (dimensionless); mn = molality of the nth substance listed, in mol/kg; conditions: 298.15 K, 101 kPa, Liquid, Standard Abbe refractometry
[2] = cn = amount concentration of the nth substance listed, in mol/dm3; conditions: 298.15 K, 101 kPa, Liquid; for molar conductivity: Alternating current cell with electrodes; for viscosity: Capillary tube (Ostwald / Ubbelohde) method
[3] = mn = molality of the nth substance listed, in mol/kg; conditions: 298.15 K, 101 kPa, Liquid

C[C@H](N)C(=O)O [(S)-2-aminopropanoic acid] + O
Conditions | mass density [kg/m3] | molar conductivity [S·m2/mol] | refractive index | viscosity [mPa·s]
[1], m1 = 0.0533 | – | – | 1.3326 | –
[1], m1 = 0.091 | – | – | 1.333 | –
[1], m1 = 0.1496 | – | – | 1.3337 | –
[1], m1 = 0.1913 | – | – | 1.3342 | –
[1], m1 = 0.2516 | – | – | 1.335 | –
[1], m1 = 0.2926 | – | – | 1.3355 | –
[1], m1 = 0.3514 | – | – | 1.3362 | –
[1], m1 = 0.3799 | – | – | 1.3365 | –
[1], m1 = 0.4471 | – | – | 1.3374 | –
[1], m1 = 0.4827 | – | – | 1.3378 | –
[2], c1 = 0.0007166 | – | 0.0153 | – | –
[2], c1 = 0.001486 | – | 0.0148 | – | –
[2], c1 = 0.002275 | – | 0.0146 | – | –
[2], c1 = 0.003892 | – | 0.0145 | – | –
[2], c1 = 0.00566 | – | 0.0142 | – | –
[2], c1 = 0.007383 | – | 0.0139 | – | –
[2], c1 = 0.00904 | – | 0.0137 | – | –
[2], c1 = 0.0116 | – | 0.0135 | – | –
[2], c1 = 0.01431 | – | 0.0132 | – | –
[2], c1 = 0.01747 | – | 0.0129 | – | –
[2], c1 = 0.02104 | – | 0.0126 | – | –
[2], c1 = 0.02475 | – | 0.0123 | – | –
[2], c1 = 0.0532 | – | – | – | 0.886
[2], c1 = 0.091 | – | – | – | 0.891
[2], c1 = 0.1498 | – | – | – | 0.897
[2], c1 = 0.1918 | – | – | – | 0.902
[2], c1 = 0.2526 | – | – | – | 0.912
[2], c1 = 0.2941 | – | – | – | 0.921
[2], c1 = 0.3537 | – | – | – | 0.928
[2], c1 = 0.3827 | – | – | – | 0.936
[2], c1 = 0.4512 | – | – | – | 0.951
[2], c1 = 0.4876 | – | – | – | 0.957
[3], m1 = 0.0499 | 998.55 | – | – | –
[3], m1 = 0.0849 | 999.6 | – | – | –
[3], m1 = 0.1397 | 1001.23 | – | – | –
[3], m1 = 0.1784 | 1002.37 | – | – | –
[3], m1 = 0.2346 | 1004.02 | – | – | –
[3], m1 = 0.2731 | 1005.13 | – | – | –
[3], m1 = 0.3275 | 1006.7 | – | – | –
[3], m1 = 0.3551 | 1007.46 | – | – | –
[3], m1 = 0.4168 | 1009.23 | – | – | –
[3], m1 = 0.4513 | 1010.16 | – | – | –

CC(C)[C@H](N)C(=O)O [L-valine] + O
Conditions | mass density [kg/m3] | molar conductivity [S·m2/mol] | refractive index | viscosity [mPa·s]
[1], m1 = 0.1173 | – | – | 1.3348 | –
[1], m1 = 0.1402 | – | – | 1.3353 | –
[1], m1 = 0.1894 | – | – | 1.3363 | –
[1], m1 = 0.2512 | – | – | 1.3375 | –
[1], m1 = 0.2973 | – | – | 1.3384 | –
[1], m1 = 0.3211 | – | – | 1.3389 | –
[1], m1 = 0.3841 | – | – | 1.3401 | –
[1], m1 = 0.4378 | – | – | 1.341 | –
[2], c1 = 0.0007166 | – | 0.0153 | – | –
[2], c1 = 0.001486 | – | 0.0148 | – | –
[2], c1 = 0.002275 | – | 0.0146 | – | –
[2], c1 = 0.003892 | – | 0.0145 | – | –
[2], c1 = 0.00566 | – | 0.0142 | – | –
[2], c1 = 0.007383 | – | 0.0139 | – | –
[2], c1 = 0.00904 | – | 0.0137 | – | –
[2], c1 = 0.0116 | – | 0.0135 | – | –
[2], c1 = 0.01431 | – | 0.0132 | – | –
[2], c1 = 0.01747 | – | 0.0129 | – | –
[2], c1 = 0.1173 | – | – | – | 0.892
[2], c1 = 0.1403 | – | – | – | 0.899
[2], c1 = 0.1898 | – | – | – | 0.906
[2], c1 = 0.2521 | – | – | – | 0.916
[2], c1 = 0.2987 | – | – | – | 0.938
[2], c1 = 0.3228 | – | – | – | 0.943
[2], c1 = 0.3867 | – | – | – | 0.958
[2], c1 = 0.4413 | – | – | – | 0.979
[3], m1 = 0.1173 | 1000.17 | – | – | –
[3], m1 = 0.1402 | 1000.77 | – | – | –
[3], m1 = 0.1894 | 1002.03 | – | – | –
[3], m1 = 0.2512 | 1003.59 | – | – | –
[3], m1 = 0.2973 | 1004.74 | – | – | –
[3], m1 = 0.3211 | 1005.32 | – | – | –
[3], m1 = 0.3841 | 1006.84 | – | – | –
[3], m1 = 0.4378 | 1008.11 | – | – | –

From the NIST ThermoML archive (doi:10.1021/je900882r)
